Common to all, as to assay: MIC determination at University Medical Center Groningen
What all share (format): cell-based

Assay [1] concerns clinical isolates of Acinetobacter baumannii (and ATCC17978). From the text:
(§1) 3.4.3 MIC Determination at University Medical Center Groningen (the Netherlands)
(§2) Tested reference compounds. Amikacin sulfate (Cat. No. 01693, Chem-Impex), Gentamicin sulfate (Cat. No. G4918, Sigma Aldrich).
(§3) Bacterial strains/isolates. Pseudomonas aeruginosa ATCC 27853, Escherichia coli ATCC 25922, Klebsiella pneumonia ATCC43816, Acinetobacter baumannii ATCC17978, 9 clinical isolates of Klebsiella pneumonia (origin: 4 unknown, 3 urine, 1 sputum, 1 catheter tip), 7 clinical isolates of Pseudomonas aeruginosa (origin: 3 unknown, 1 wound, 1 catheter, 1 faeces, bronco alveolar liquid=BAL), 8 clinical isolates of Escherichia coli (origin: 2 bile liquid, 2 rectum, 1 throat, 2 blood culture, 1 sputum), 4 clinical isolates of Acinetobacter baumannii (origin: 2 blood culture, 1 sputum, 1 bone).
(§4) Culture media and equipment. As indicated by EUCAST guidelines (European Committee on Antimicrobial Susceptibility Testing (EUCAST); Media preparation for EUCAST disk diffusion testing and for determination of MIC values by the broth microdilution method; Version 5.0, 2017), Mueller Hinton Broth, CM0405, (Oxoid) was used for the broth micro-dilutions; and Mueller Hinton Agar, CM0337, (Oxoid) was used for the plating on agar. The testing assays were conducted in 96-well plates, with U-bottom shape (Greiner Bio-one); All bacteria strains/isolates used were handled in a Laminar flow, Clean Air (Baker). A CO2 incubator commercialized by Sanyo was used. Finally, spectrophotometer measurements were conducted using a Synergy 2 Multi-detection Microplate Reader (BioTek).
(§5) Compound preparation. The compounds were weighed and dissolved into MilliQ water. These concentrated stock aliquots were then further diluted to reach the desired testing concentrations. Serial dilutions were made in order to achieve the ten desired final concentrations for the tested compounds, that ranged between 64-0.125 μg/mL. The concentrations were calculated in respect to the 150 μL of final volume used for each of the 96-wells. Of these dilutions, 100 μL was added in each testing well of a sterile 96-well plate. All compound dilutions were plated in triplicate, while duplicates were used for the two reference antibiotics.
(§6) Inoculum preparation. The clinical isolates were revived from Luria Bertani medium storage at −80° C. by plating them overnight on MH agar plates. The following day, a few colonies were picked and inoculated in small glass bottles containing 10 mL MH broth. Growth was subsequently allowed for approx. 3 hours, at 35° C. with 250 rpm shaking, until the isolates reached late logarithmic growth phase. At this point culture solutions were prepared with an OD600 (optical density measured at 600 nm; measured using Synergy 2 Multi-detection Microplate Reader; BioTek) of 0.05. […] 50 μL of culture suspension was added to each of the wells of the 96 well plate previously loaded with the desired antibiotic/medium solution, reaching a final total volume of 150 μL per well. As controls, blanks of the MH medium and of culture were added to the 96-well plate. Plates were incubated in a plate incubator in static conditions at 35° C. for 18 hours.
(§7) MIC determination. After the incubation time, the MIC value was determined by visual inspection of bacterial growth within 96-well plates. The first column in which there was no visible growth of bacteria was determined as the MIC90 value for the compound tested in that particular row. Additionally, spectrophotometer readouts at 600 nm were recorded for each well.
(§8) MIC90. The MIC90 of a compound was assigned at which no visible growth of bacteria was determined.

Assay [2] relates to clinical isolates of Klebsiella pneumonia (and ATCC43816). To be noted: Klebsiella pneumoniae.
From the text: as §1, §2, §3, §4, §5, §6, §7, §8

Assay [3] has as its system clinical isolates of Escherichia coli (and ATCC 25922).
From the text: as §1, §2, §3, §4, §5, §6, §7, §8

Read-outs that look alike come from different tables or passages of the source.

From US20220127297A1, “Novel Antibacterial 3"-Derivatives Of 4,6-Disubstituted 2,5-Dideoxystreptamine Aminoglycoside Antibiotics” (AGILeBiotics B.V., priority 2018, published 2022) come the findings set out here.

`N=C(N)NC1C(O)[C@@H](CO)OC(OC2C(F)[C@H](O[C@H]3OC(CN)[C@@H](O)CC3N)C(N)C[C@H]2NC(=O)[C@@H](O)CCN)[C@@H]1O` (stereo partly drawn) [ABX5006, Tobra-AHB-F-Gua]: the MIC90 in assay [1] (ATCC17978, A. baumannii ATCC17978 strain, broth micro-dilution (CLSI)) was less than 0.125 µg/mL; in assay [1] (ATCC17978, A. baumannii clinical isolate AB-2, Multidrug-resistant, origin Sputum) it was 0.5 to 1 µg/mL; in assay [1] (ATCC17978, A. baumannii clinical isolate AB-10, Multidrug-resistant, origin Blood culture), 0.5 to 1 µg/mL; in assay [1] (ATCC17978, A. baumannii clinical isolate AB-14, Multidrug-resistant, origin Blood culture), 0.5 to 1 µg/mL; in assay [1] (ATCC17978, A. baumannii clinical isolate AB-18, Multidrug-resistant, origin Bone), 2 to 4 µg/mL; in assay [2] (ATCC43816, K. pneumoniae ATCC43816 strain, broth micro-dilution (CLSI), read-out: MIC 90), 0.25 µg/mL. For the same compound, the MIC90 turned out to be 8 µg/mL in assay [2] (ATCC43816, K. pneumoniae clinical isolate KP-107, KPC/Pandrug-resistant, origin Urine, read-out: MIC 90); 8 µg/mL in assay [2] (ATCC43816, K. pneumoniae clinical isolate KP-108, KPC/Pandrug-resistant, origin Urine, read-out: MIC 90); 16 µg/mL in assay [2] (ATCC43816, K. pneumoniae clinical isolate KP-109, KPC/Pandrug-resistant, origin Catheter tip, read-out: MIC 90); 8 µg/mL in assay [2] (ATCC43816, K. pneumoniae clinical isolate KP-110, KPC/Pandrug-resistant, origin Sputum, read-out: MIC 90); 8 µg/mL in assay [2] (ATCC43816, K. pneumoniae clinical isolate KP-111, KPC/Pandrug-resistant, origin Urine, read-out: MIC 90); 4 µg/mL in assay [2] (ATCC43816, K. pneumoniae clinical isolate KP-113, KPC/Pandrug-resistant, origin unkown). Further, the MIC90 stood at 0.5 µg/mL in assay [3] (ATCC25922, E. coli ATCC25922 strain, broth micro-dilution (CLSI)); 0.5 µg/mL in assay [3] (ATCC25922, E. coli clinical isolate EC-11, Multidrug-resistant, origin Throat); 2 µg/mL in assay [3] (ATCC25922, E. coli clinical isolate EC-12, Multidrug-resistant, origin Rectum); 4 µg/mL in assay [3] (ATCC25922, E. coli clinical isolate EC-22, Multidrug-resistant, origin Sputurn); 4 µg/mL in assay [3] (ATCC25922, E. coli clinical isolate EC-25, Multidrug-resistant, origin Bile liquid); 4 µg/mL in assay [3] (ATCC25922, E. coli clinical isolate EC-26, Multidrug-resistant, origin Bile liquid). The MIC90 is 2 µg/mL in assay [3] (ATCC25922, E. coli clinical isolate EC-40, Multidrug-resistant, origin Blood culture); 4 µg/mL in assay [3] (ATCC25922, E. coli clinical isolate EC-43, Multidrug-resistant, origin Rectum); 2 µg/mL in assay [3] (ATCC25922, E. coli clinical isolate EC-46, suceptible, origin Blood culture).
